Data taken from patent US8648201B2, “Aminopyridine derivatives for treating tumors and inflammatory diseases” (MERCK PATENT GmbH, priority 2009, dated 2014).
pIC50: −log10 of the molar value.

Experiments:
IRAK-4 [1] = target: T1, IRAK-4 (Homo sapiens, UniProt Q9NWZ3); assay: Test for the inhibition of IRAK4 (flashplate, 33P-ATP); type: biochemical; details: enzyme
T1 construct: His6 (N); Dr.Jaekel
T1 sequence (Q9NWZ3 1-460): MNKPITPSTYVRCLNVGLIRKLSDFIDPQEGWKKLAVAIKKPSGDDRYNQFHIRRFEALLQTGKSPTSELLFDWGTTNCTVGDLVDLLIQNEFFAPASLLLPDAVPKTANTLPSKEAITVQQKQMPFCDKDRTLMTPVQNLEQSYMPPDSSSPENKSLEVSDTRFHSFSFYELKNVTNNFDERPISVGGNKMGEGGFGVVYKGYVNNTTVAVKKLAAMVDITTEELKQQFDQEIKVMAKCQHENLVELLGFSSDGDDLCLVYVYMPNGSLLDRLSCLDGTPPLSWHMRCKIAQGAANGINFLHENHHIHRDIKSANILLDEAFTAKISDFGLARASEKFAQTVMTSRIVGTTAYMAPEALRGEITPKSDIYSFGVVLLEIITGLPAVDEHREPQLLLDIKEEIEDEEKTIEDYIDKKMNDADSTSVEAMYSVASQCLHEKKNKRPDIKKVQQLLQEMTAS
Method: (§1) The experimental batches are carried out in a flashplate system with 384 wells/microtitre plate. In each case, the IRAK4 sample His6-IRAK4 (7.3 nM), the biotinylated substrate peptide STK substrate 1-biotin (Cisbio Bioassays, France) (300 nM), 10 μM ATP (with 0.25 μCi of ^33P-ATP/well) and the test substance in 50 μl of conventional experimental solution per well are incubated at 22° C. for 180 min. The test substances are employed in corresponding concentrations (if desired in a dilution series). The control is carried out without test substance. The reaction is stopped using standard methods and washed. The activity of the kinase is measured via the incorporated radioactivity in top count. In order to determine the non-specific kinase reaction (blank value), the experimental batches are carried out in the presence of 1 μM staurosporin. The radioactivity (decompositions per minute) of the blank value (no use of test substance in the presence of 1 μM staurosporin) is subtracted from all other radioactivity values. The controls (kinase activity without test substance) are set equal to 100 percent and all other radioactivity values (after subtracting the blank value) are expressed set in relation thereto (for example in % of the control). IC50 values (50% inhibition) are determined with the aid of statistics programs, such as, for example, RS1.

IRAK-1 = target: T2, IRAK-1 (Homo sapiens, UniProt P51617); assay: Test for the inhibition of IRAK1 (autophosphorylation, flashplate); type: biochemical; details: enzyme
T2 construct: His6 (N); Dr.Jaekel Pool B, 232Y08C1.IRK
T2 sequence (P51617 whole entry, species assumed): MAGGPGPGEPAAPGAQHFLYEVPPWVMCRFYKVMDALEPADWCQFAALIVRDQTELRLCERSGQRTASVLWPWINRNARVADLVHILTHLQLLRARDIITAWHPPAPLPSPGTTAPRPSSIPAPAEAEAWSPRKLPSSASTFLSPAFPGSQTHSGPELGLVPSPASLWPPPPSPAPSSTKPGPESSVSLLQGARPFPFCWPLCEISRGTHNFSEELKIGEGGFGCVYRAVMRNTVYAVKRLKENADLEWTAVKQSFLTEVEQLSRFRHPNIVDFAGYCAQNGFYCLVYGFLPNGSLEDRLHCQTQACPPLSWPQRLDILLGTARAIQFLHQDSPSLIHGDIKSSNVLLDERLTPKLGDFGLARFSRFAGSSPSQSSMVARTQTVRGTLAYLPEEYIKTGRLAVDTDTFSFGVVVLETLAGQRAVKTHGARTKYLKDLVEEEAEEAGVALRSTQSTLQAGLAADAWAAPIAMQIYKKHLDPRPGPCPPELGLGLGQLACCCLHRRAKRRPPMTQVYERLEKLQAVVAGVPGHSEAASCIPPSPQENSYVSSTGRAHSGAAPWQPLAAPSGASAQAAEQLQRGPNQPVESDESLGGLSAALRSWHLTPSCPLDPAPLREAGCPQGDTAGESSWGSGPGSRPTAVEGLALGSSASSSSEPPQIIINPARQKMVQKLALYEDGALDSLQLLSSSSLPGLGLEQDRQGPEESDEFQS
Method: as §1, with “case, in order to investigate” for “case,”, “inhibition of the autophosphorylation activity of IRAK1, the IRAK1” for “IRAK4”, “His6-IRAK1 (5.1” for “His6-IRAK4 (7.3”, “1” for “the biotinylated substrate peptide STK substrate 1-biotin (Cisbio Bioassays, France) (300 nM), 10”

IRAK-4 [2] = target: T1, IRAK-4; assay: IC50 IRAK-4 (cell); type: cell-based
PDK1 [3] = target: T3, PDK1 (Homo sapiens, UniProt O15530); assay: IC50 PDK1 (cell); type: cell-based
T3 construct: endogenous in cells; host or cells: commercially available colon carcinoma, ovary, prostate or breast cell lines (none named)
T3 sequence (O15530 1-556): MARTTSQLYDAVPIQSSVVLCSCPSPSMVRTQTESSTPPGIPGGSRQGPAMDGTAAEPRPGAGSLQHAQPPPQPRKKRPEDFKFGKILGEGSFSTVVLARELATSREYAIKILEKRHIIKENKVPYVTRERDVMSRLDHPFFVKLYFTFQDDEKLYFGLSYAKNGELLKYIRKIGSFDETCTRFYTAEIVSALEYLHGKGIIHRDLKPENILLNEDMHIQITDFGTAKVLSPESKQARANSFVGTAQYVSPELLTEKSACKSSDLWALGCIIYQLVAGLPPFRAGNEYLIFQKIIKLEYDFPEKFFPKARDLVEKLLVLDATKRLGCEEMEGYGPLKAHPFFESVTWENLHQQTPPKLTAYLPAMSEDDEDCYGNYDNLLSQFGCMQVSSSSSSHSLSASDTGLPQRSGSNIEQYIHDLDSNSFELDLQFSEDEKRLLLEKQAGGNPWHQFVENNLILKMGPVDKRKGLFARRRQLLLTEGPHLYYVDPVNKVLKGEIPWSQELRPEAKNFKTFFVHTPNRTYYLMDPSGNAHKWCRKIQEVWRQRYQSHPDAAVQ
Method: The cells are sown in a suitable cell density in microtitre plates (96-well format) and the test substances are added in the form of a concentration series. After four further days of cultivation in serum-containing medium, the tumour cell proliferation/tumour cell vitality can be determined by means of an Alamar Blue test system. A defined number of cells (for example 2000 cells) per culture/well in a volume of 180 μl of culture medium are sown in microtitre plates (96 well cell-culture plates) using a multichannel pipette. The cells are subsequently cultivated in a CO2 incubator (37° C. and 10% CO2). The test substances are dissolved, for example, in DMSO and subsequently employed in corresponding concentration (if desired in a dilution series) in the cell culture medium. The dilution steps can be adapted depending on the efficiency of the active ingredients and the desired spread of the concentrations. Cell culture medium is added to the test substances in corresponding concentrations. The addition of the test substances to the cells can take place on the same day as the sowing of the cells. To this end, in each case 20 μl of substance solution from the predilution plate are added to the cultures/wells. The cells are cultivated for a further 4 days at 37° Celsius and 10% CO2. In each case, 20 μl of Alamar Blue reagent are added per well, and the microtitre plates are incubated, for example, for a further seven hours in a CO2 incubator (at 37° C. and 10% CO2). The plates are measured in a reader with a fluorescence filter at a wavelength of 540 nm. The plates can be shaken gently immediately before the measurement. The absorbance value of the medium control (no cells and test substances used) is subtracted from all other absorbance values. The controls (cells without test substance) are set equal to 100 percent, and all other absorbance values are set in relation thereto (for example in % of control): Calculation: 100*(value with cells and test substance−value of medium control)/(value with cells−value of medium control) IC50 values (50% inhibition) are determined with the aid of statistics programs, such as, for example, RS1.

PDK1 [4] = target: T4, PDK1 (Homo sapiens, UniProt O15530); assay: Test for the inhibition of PDK1 (flashplate, 33P-ATP); type: biochemical; details: enzyme
T4 construct: His6 (N)
T4 sequence (O15530 51-556 limits assumed): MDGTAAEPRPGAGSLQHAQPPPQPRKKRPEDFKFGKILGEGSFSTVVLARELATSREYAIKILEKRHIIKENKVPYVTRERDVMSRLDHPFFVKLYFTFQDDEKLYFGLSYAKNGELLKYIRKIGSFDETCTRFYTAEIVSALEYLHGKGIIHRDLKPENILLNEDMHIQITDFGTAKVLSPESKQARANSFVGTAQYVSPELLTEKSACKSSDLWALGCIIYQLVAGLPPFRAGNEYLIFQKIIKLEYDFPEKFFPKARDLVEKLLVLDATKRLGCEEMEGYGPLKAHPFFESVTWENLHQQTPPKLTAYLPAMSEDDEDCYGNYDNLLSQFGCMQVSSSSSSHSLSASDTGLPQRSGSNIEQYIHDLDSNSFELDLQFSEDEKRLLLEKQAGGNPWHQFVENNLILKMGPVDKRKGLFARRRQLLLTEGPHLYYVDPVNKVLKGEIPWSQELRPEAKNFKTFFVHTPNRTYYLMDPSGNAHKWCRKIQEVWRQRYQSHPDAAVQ
Method: The experimental batches are carried out in a flashplate system with 384 wells/microtitration plate.
In each case, the PDK1 sample His6-PDK1(1-50)(3.4 nM), the PDK1 substrate biotin-bA-bA-[…] (400 nM), 4 μM ATP (with 0.2 μCi of ^33P-ATP/well) and the test substance in 50 μl of conventional experimental solution per well are incubated at 30° C. for 60 min. The test substances are employed in corresponding concentrations (if desired in a dilution series). The control is carried out without test substance. The reaction is stopped using standard methods and washed. The activity of the kinase is measured via the incorporated radioactivity in top count. In order to determine the non-specific kinase reaction (blank value), the experimental batches are carried out in the presence of 100 nM staurosporin.
The radioactivity (decompositions per minute) of the blank value (no use of test substance in the presence of staurosporin) is subtracted from all other radioactivity values. The controls (kinase activity without test substance) are set equal to 100 percent and all other radioactivity values (after subtracting the blank value) are expressed set in relation thereto (for example in % of the control).
IC50 values (50% inhibition) are determined with the aid of statistics programmes, such as, for example, RS1.

Compound: COc1ccc2nc(-c3cc(-c4cnn(C(C)C)c4)cnc3N)[nH]c2c1 [Compound A107, 5-(1-Isopropyl-1H-pyrazol-4-yl)-3-(6-methoxy-1H-benzimidazol-2-yl)pyridin-2-ylamine]
- pIC50 (IRAK-4 [1]): 7.00 to 9.00
- pIC50 (IRAK-1): 7.00 to 9.00
- pIC50 (IRAK-4 [2]): 5.00 to 7.00

Compound: CCCn1cc(-c2cnc(N)c(-c3nc4ccccc4[nH]3)c2)cn1 [Compound A44]
- pIC50 (IRAK-4 [1]): 5.00 to 7.00
- pIC50 (IRAK-1): 5.00 to 7.00
- pIC50 (IRAK-4 [2]): 5.00 to 7.00

Compound: COc1ccc2nc(-c3cc(-c4cnn(C5CCN(C)CC5)c4)cnc3N)[nH]c2c1 [Compound A106, 3-(6-Methoxy-1H-benzimidazol-2-yl)-5-[1-(1-methyl-piperidin-4-yl)-1H-pyrazol-4-yl]pyridin-2-ylamine]
- pIC50 (PDK1 [3]): < 5.00
- pIC50 (PDK1 [4]): 7.00 to 9.00

Compound: COCCn1cc(-c2cnc(N)c(-c3nc4cc(C5=NNC(=O)CC5C)ccc4[nH]3)c2)cn1 (centres unmarked) [Compound A12]
- pIC50 (PDK1 [3]): 5.00 to 7.00
- pIC50 (PDK1 [4]): 7.00 to 9.00

Compound: CC1CC(=O)NN=C1c1ccc2nc(-c3cc(-c4cnn(CCO)c4)cnc3N)[nH]c2c1 (centres unmarked) [Compound A29, 6-(2-{2-amino-5-[1-(2-hydroxyethyl)-1H-pyrazol-4-yl]pyridin-3-yl}-3H-benzimidazol-5-yl)-5-methyl-4,5-dihydro-2H-pyridazin-3-one]
- pIC50 (PDK1 [3]): < 5.00
- pIC50 (PDK1 [4]): 7.00 to 9.00

Compound: CC1CC(=O)NN=C1c1ccc2[nH]c(-c3cc(-c4cnn(C(C)C)c4)cnc3N)nc2c1 (centres unmarked) [Compound A11, 6-{2-[2-Amino-5-(1-isopropyl-1H-pyrazol-4-yl)pyridin-3-yl]-1H-benzimidazol-5-yl}-5-methyl-4,5-dihydro-2H-pyridazin-3-one]
- pIC50 (PDK1 [3]): 5.00 to 7.00
- pIC50 (PDK1 [4]): 7.00 to 9.00

Compound: CN(C)c1ccc2nc(-c3cc(-c4cnn(C)c4)cnc3N)[nH]c2c1 [Compound A68]
- pIC50 (PDK1 [3]): < 5.00
- pIC50 (PDK1 [4]): 7.00 to 9.00

Compound: CCC1CC(=O)NN=C1c1ccc2[nH]c(-c3cc(-c4cnn(C)c4)cnc3N)nc2c1 (centres unmarked) [Compound A4, 6-{2-[2-Amino-5-(1-methyl-1H-pyrazol-4-yl)-pyridin-3-yl]-1H-benzimidazol-5-yl}-5-ethyl-4,5-dihydro-2H-pyridazin-3-one]
- pIC50 (PDK1 [3]): 5.00 to 7.00
- pIC50 (PDK1 [4]): 7.00 to 9.00

Compound: CC1CC(=O)NN=C1c1ccc2[nH]c(-c3cc(-c4cnn(CCN(C)C)c4)cnc3N)nc2c1 (centres unmarked) [Compound A15, 6-(2-{2-Amino-5-[1-(2-dimethylaminoethyl)-1H-pyrazol-4-yl]pyridin-3-yl}-1H-benzimidazol-5-yl)-5-methyl-4,5-dihydro-2H-pyridazin-3-one]
- pIC50 (PDK1 [3]): < 5.00
- pIC50 (PDK1 [4]): 7.00 to 9.00
